Measured values reported in patent publication US8722659B2, “Quinazolinedione derivatives, preparation thereof and various therapeutic uses thereof” (Sanofi, priority 2009, dated 2014).

How the values were obtained:
[1] = target: T1, Human PDE7 (Homo sapiens, UniProt Q13946); assay: PDE7 enzymatic test ([3H]-cAMP hydrolysis, TLC on PEI cellulose); assay type: biochemical; conditions: human PDE7 partially purified from HUT-78; cAMP concentration about 4 times the Km; 10 μM rolipram present
T1 construct: Human PDE7 was partially purified from the cell line HUT-78; endogenous in cells; host or cells: HUT-78 (human T-cell line), partially purified enzyme preparation
T1 sequence (Q13946 whole entry): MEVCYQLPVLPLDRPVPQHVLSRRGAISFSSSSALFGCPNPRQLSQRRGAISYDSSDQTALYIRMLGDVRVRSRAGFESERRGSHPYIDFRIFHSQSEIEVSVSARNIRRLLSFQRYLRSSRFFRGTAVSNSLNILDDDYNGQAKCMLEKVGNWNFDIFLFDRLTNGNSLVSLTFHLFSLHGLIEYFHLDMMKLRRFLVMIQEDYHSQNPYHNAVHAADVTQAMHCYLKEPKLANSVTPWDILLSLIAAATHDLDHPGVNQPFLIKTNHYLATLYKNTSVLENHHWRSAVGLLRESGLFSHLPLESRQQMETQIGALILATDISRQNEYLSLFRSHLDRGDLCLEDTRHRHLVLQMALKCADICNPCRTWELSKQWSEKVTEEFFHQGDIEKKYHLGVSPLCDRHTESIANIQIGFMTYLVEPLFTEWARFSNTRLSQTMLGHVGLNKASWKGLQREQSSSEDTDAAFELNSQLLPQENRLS
Description: (§1) The capacity of the compounds of formula (I) to inhibit PDE7 is measured by means of an enzymatic test based on separating radioactive cAMP (substrate of PDE7) from radioactive 5′-AMP (product of the enzymatic reaction) by thin-layer chromatography on polyethyleneimine (PEI) cellulose, after stopping the enzymatic reaction. The 5′-AMP is quantitatively extracted from the PEI cellulose and its radioactivity is measured using a liquid scintillation counter.
The inhibitory activity of the compounds of formula (I) on PDE7 is represented by the inhibition constant IC50, defined as the concentration of test compound (inhibitor) in the trial that can reduce the enzymatic activity of PDE7 by 50%. The lower the IC50 values, the greater the inhibitory power of the compounds.
Human PDE7 was partially purified from the cell line HUT-78 by following a method similar to that described by Bloom and Beavo (Proc. Natl. Acad. Sci. USA, (1996) 93, 14188-14192). The enzyme preparation obtained is stored at −80° C. in a buffer containing 20 mM of Tris-HCl (pH 7.0), 5 mM of MgCl2, 4 mM of EDTA, 1 mM of dithiothreitol and 20% glycerol. […] The Michaelis constant (Km) of PDE7 for cAMP, measured using the radiochemical test described hereinbelow, is 21 nM.
The compounds of formula (I) to be tested as PDE7 inhibitors are dissolved in DMSO to a concentration of 10 mM. These solutions are then serially diluted in DMSO to obtain solutions of desired concentrations. These solutions are then diluted 20-fold in the test buffer to give solutions containing 5% DMSO. These solutions are finally diluted 5-fold in the enzymatic test.
The test is performed in 1.5-ml Eppendorf tubes containing 40 mM of Tris-HCl (pH 7.5), 15 mM of MgCl2, 1 mM of EGTA, 0.5 mg/ml of bovine serum albumin, 0.25 μCi of [^3H]-cAMP (corresponding to a cAMP concentration of between 60 and 100 nM), 10 μM of rolipram and PDE7 in a final volume of 100 μl. The test is performed in the absence (control sample) or in the presence (treated sample) of compounds tested as PDE7 inhibitors. The final concentration of DMSO in the test is […]. The reaction is initiated by adding enzyme and the samples are maintained at room temperature for 30 minutes. The enzymatic dilution is adjusted so as to obtain a degree of conversion of 10% to 15%. The enzymatic reaction is stopped by immersing the stoppered Eppendorf tubes in a water bath at 100° C. for 3 minutes. Blanks (reaction stopped immediately after adding the enzyme) are included in each experiment. The samples are then centrifuged at 10 000×g for 1 minute and a 10 μl aliquot portion of the supernatant is deposited 2 cm from the bottom edge of a sheet of PEI cellulose onto which 10 μg of cAMP and 10 μg of 5′-AMP have previously been deposited. To facilitate the migration and the subsequent cutting of the PEI cellulose strips containing the 5′-AMP, 18 migration paths 1 cm wide are delimited per plate by scraping the cellulose with a spatula over a width of 1 mm. The plates are developed over their entire length with a 0.30 M solution of LiCl in water by ascending chromatography. The 5′-AMP (Rf=0.20) and the cAMP (Rf=0.47) are visualized under UV light at 254 nm. The PEI cellulose bands containing the 5′-AMP are cut out and the nucleotide is extracted quantitatively into counting flasks with 2 ml of a solution containing 16 M of formic acid and 2 M of ammonium formate in water (rotary stirring for 15 minutes). After adding 10 ml of scintillation liquid (OptiPhase HiSafe 3 from Perkin-Elmer/Wallac), the radioactivity is counted using a liquid scintillation counter (Perkin-Elmer/Wallac model 1414). Each test is performed in duplicate. The radioactivity specifically associated with the 5′-AMP formed in the enzymatic reaction is obtained by subtracting the mean value of the blanks from the mean value of the controls (or of the treated samples). […]

[2] = test system: PBMCs of normal individuals; conditions: cited from earlier work
[3] = test system: CLL-PBMCs; conditions: PBMC of chronic lymphocytic leukaemia patients; cited from earlier work
[4] = test system: PDE8; assay: PDE8 enzymatic test equivalent to that described for PDE7; assay type: biochemical; conditions: at 0.1 μM
Description: as §1
The test is performed in 1.5-ml Eppendorf tubes containing 40 mM of Tris-HCl (pH 7.5), 15 mM of MgCl2, 1 mM of EGTA, 0.5 mg/ml of bovine serum albumin, 0.25 μCi of [^3H]-cAMP (corresponding to a cAMP concentration of between 60 and 100 nM), 10 μM of rolipram and PDE7 in a final volume of 100 μl. The test is performed in the absence (control sample) or in the presence (treated sample) of compounds tested as PDE7 inhibitors. The final concentration of DMSO in the test is 2%. […] The PEI cellulose bands containing the 5′-AMP are cut out and the nucleotide is extracted quantitatively into counting flasks with 2 ml of a solution containing 16 M of formic acid and 2 M of ammonium formate in water (rotary stirring for 15 minutes). After adding 10 ml of scintillation liquid (OptiPhase HiSafe 3 from Perkin-Elmer/Wallac), the radioactivity is counted using a liquid scintillation counter (Perkin-Elmer/Wallac model 1414). […]

Row | Structure (SMILES) | IC50 [1] | also measured
1 | COc1ccc(Cn2c(=O)c3cc(OCC#N)ccc3n(C3CC[S+]([O-])CC3)c2=O)cc1OC (single isomer, unassigned; isomer 1) [Compound 17, {[3-(3,4-dimethoxybenzyl)-1-(1-oxidotetrahydro-2H-thiopyran-4-yl)-2,4-dioxo-1,2,3,4-tetrahydroquinazolin-6-yl]oxy}acetonitrile (isomer 1)] | 6.1 nM | –
2 | Cc1ccc([N+](=O)[O-])cc1S(=O)(=O)N(C)C [BRL-50481] | – | effect on the PBMCs of normal individuals [2]: no effect; apoptosis of CLL-PBMCs [3]: induces dose-dependent apoptosis
3 | COc1ccc(Cn2c(=O)c3cc(OCC#N)ccc3n(C3CCOCC3)c2=O)cc1OC [Compound 2, {[3-(3,4-dimethoxybenzyl)-2,4-dioxo-1-(tetrahydro-2H-pyran-4-yl)-1,2,3,4-tetrahydroquinazolin-6-yl]oxy}acetonitrile] | 8.9 nM | –
4 | COc1ccc(Cn2c(=O)c3cc(OCC#N)ccc3n(C3CCOCC3)c2=O)cn1 [Compound 9, ({3-[(6-methoxypyridin-3-yl)methyl]-2,4-dioxo-1-(tetrahydro-2H-pyran-4-yl)-1,2,3,4-tetrahydroquinazolin-6-yl}oxy)acetonitrile] | 16 nM | –
5 | COc1ccc(Cn2c(=O)c3cc(OCC#N)ccc3n(C3CCSCC3)c2=O)cc1OC [Compound 11, {[3-(3,4-dimethoxybenzyl)-2,4-dioxo-1-(tetrahydro-2H-thiopyran-4-yl)-1,2,3,4-tetrahydroquinazolin-6-yl]oxy}acetonitrile] | 5.5 nM | –
6 | COc1ccc(Cn2c(=O)c3cc(OCC#N)ccc3n(C3CCS(=O)(=O)CC3)c2=O)cc1OC [Compound 14, {[3-(3,4-dimethoxybenzyl)-1-(1,1-dioxidotetrahydro-2H-thiopyran-4-yl)-2,4-dioxo-1,2,3,4-tetrahydroquinazolin-6-yl]oxy}acetonitrile] | 230 nM | –
7 | COc1ccc(Cn2c(=O)c3cc(CO)ccc3n(C3CCOCC3)c2=O)cc1OC [Compound 45, 3-(3,4-dimethoxybenzyl)-6-(hydroxymethyl)-1-(tetrahydro-2H-pyran-4-yl)-quinazoline-2,4(1H,3H)-dione] | 61 nM | –
8 | COc1ccc(Cn2c(=O)c3cc(CF)ccc3n(C3CCOCC3)c2=O)cc1OC [Compound 60, 3-(3,4-dimethoxybenzyl)-6-(fluoromethyl)-1-(tetrahydro-2H-pyran-4-yl)-quinazoline-2,4(1H,3H)-dione] | 12 nM | –
9 | COc1cc(Cn2c(=O)c3cc(OC(CF)CF)c(F)cc3n(C3CCOCC3)c2=O)ccc1OCc1ccccc1 [Compound 64, 3-[4-(benzyloxy)-3-methoxybenzyl]-6-[(1,3-difluoropropan-2-yl)oxy]-7-fluoro-1-(tetrahydro-2H-pyran-4-yl)quinazoline-2,4(1H,3H)-dione] | – | inhibition of PDE8 [4]: 59%
